Laboratory results as given in publication PMC5378956, “Inhibition of delta-secretase improves cognitive functions in mouse models of Alzheimer's disease” (Nature Communications, 2017).

What was measured:
[1] = Caco-2 monolayer permeability screen; settings: human, Caco-2
Description: Supplementary Table 3: Caco-2 permeability and BBB-PAMPA permeability
For CaCo-2 permeability assay, cells were incubated with 10 µM of these reagents in
buffers for 2 h, and the receiver side buffer is removed for analysis by LC/MS/MS. Efflux […]
LLOQ: Lower Limit of Quantification; Papp: apparent permeability.

[2] = test system: CYP3A; assay: CYP inhibition screening in microsomes; settings: human
[3] = target: T1, δ-secretase in Pala cells (Homo sapiens, UniProt Q99538); assay: δ-secretase inhibition in intact Pala cells
T1 sequence (Q99538 18-433): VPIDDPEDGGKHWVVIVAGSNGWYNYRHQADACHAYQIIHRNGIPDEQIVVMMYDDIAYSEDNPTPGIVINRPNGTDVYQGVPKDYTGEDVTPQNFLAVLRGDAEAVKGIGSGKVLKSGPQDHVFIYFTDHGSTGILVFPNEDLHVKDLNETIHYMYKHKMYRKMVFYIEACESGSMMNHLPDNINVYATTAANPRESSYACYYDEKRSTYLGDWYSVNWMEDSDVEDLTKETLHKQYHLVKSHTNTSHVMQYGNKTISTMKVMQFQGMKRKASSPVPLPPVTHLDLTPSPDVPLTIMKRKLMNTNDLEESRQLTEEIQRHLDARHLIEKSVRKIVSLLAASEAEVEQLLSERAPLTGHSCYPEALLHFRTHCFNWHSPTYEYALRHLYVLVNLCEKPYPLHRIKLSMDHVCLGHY
Description: Cells were collected, washed twice with PBS and lysed in Lysis Buffer (20 mM citric acid, 60 mM disodium hydrogen orthophosphate, 1 mM EDTA, 0.1% CHAPS, pH 5.8). […] Data were analysed with GraFit version 5.0.11 software package.
δ-secretaseactivity assay.

[4] = Liver microsomal stability, mouse; settings: Mouse microsomes, 30 min, 37 °C
Description: (§1) Supplementary Table 4: Liver microsomal stability
(§2) Compound Species Mean Remaining Parent Mean Remaining Parent
(§3) (with NADPH) (NADPH-free)
(§4) The test agents were incubated in duplicate with microsomes at 37 °C for 30 min. The reaction contained microsomal protein in 100 mM potassium phosphate, 2 mM NADPH, 3 mM MgCl2, pH 7.4. A control was run for each test agent omitting NADPH to detect NADPH-free degradation. Data are reported as % remaining of parent compound. ND, Peak not detected due to bioanalysis issue (poor ionization).

[5] = target: T2, CYP1A2 (Homo sapiens, UniProt P05177); assay: CYP inhibition screening in microsomes; settings: pH 7.4
T2 sequence (P05177 1-516): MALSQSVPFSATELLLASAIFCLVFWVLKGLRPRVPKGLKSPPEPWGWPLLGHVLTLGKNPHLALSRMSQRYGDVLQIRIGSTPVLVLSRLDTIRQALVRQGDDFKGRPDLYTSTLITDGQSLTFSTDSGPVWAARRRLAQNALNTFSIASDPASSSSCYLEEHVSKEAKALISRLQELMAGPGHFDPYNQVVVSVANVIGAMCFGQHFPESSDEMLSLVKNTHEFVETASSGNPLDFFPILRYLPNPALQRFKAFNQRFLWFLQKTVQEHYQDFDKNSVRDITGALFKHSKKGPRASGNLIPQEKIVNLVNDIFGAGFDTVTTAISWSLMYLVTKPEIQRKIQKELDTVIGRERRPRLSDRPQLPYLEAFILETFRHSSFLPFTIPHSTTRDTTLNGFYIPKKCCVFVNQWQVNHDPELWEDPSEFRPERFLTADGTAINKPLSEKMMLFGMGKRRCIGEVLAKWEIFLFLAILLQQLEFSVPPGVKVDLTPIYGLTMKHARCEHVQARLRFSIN

[6] = Liver microsomal stability, human; settings: Human microsomes, 30 min, 37 °C
Description: as §1, §2, §3, §4

[7] = target: T3, caspase-8 (Homo sapiens, UniProt Q14790); assay: IC50 assay with recombinant caspase-8; format: biochemical; settings: for IC50: mean±s.d.
T3 construct: purchased Millipore (Billerica, MA)
T3 sequence (Q14790 217-374 limits assumed, species assumed): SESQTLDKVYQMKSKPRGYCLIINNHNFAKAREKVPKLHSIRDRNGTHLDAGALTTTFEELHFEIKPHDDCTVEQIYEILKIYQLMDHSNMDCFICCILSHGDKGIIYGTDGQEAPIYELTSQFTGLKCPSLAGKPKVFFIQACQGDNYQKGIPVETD
T3 sequence (Q14790 385-479 limits assumed, species assumed): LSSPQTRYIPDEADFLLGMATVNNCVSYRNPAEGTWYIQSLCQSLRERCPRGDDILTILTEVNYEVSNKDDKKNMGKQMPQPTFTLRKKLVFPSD
Description: (§5) Caspase-3 and 8 – The enzyme was pre-incubated with inhibitor in assay buffer (100 mM HEPES pH 7.4, 0.1% CHAPS, 10% Sucrose) for 10 min at 37 °C.
(§6) To determine the IC50 values of the compounds towards δ-secretase, cathepsin-S, cathepsin-L, caspase-3 and caspase-8, purified recombinant enzyme was incubated in appropriate assay buffers in the presence of increasing concentrations of inhibitors. The formation of fluorescent product was monitored in duplicate reactions and the data were fit to appropriate equations to calculate the IC50 values.

[8] = target: CYP3A4 (Homo sapiens, UniProt P08684); assay: CYP inhibition screening in microsomes; settings: pH 7.4, probe midazolam
Sequence of CYP3A4 (P08684 whole entry): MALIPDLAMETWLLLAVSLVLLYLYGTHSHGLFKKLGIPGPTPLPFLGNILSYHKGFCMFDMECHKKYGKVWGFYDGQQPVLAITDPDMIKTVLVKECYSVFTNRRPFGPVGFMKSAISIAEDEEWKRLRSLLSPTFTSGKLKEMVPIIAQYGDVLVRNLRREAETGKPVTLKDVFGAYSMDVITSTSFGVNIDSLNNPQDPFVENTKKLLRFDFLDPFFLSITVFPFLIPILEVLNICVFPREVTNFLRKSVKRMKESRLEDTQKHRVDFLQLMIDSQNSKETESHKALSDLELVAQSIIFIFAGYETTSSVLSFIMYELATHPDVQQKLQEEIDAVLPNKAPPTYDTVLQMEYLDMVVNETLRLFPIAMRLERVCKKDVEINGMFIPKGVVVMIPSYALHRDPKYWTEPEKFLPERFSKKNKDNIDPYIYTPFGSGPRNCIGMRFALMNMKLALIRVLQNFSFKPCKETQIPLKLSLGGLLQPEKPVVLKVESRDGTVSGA

[9] = target: CYP2D6 (Homo sapiens, UniProt P10635); assay: CYP inhibition screening in microsomes; settings: pH 7.4
Sequence of CYP2D6 (P10635 whole entry): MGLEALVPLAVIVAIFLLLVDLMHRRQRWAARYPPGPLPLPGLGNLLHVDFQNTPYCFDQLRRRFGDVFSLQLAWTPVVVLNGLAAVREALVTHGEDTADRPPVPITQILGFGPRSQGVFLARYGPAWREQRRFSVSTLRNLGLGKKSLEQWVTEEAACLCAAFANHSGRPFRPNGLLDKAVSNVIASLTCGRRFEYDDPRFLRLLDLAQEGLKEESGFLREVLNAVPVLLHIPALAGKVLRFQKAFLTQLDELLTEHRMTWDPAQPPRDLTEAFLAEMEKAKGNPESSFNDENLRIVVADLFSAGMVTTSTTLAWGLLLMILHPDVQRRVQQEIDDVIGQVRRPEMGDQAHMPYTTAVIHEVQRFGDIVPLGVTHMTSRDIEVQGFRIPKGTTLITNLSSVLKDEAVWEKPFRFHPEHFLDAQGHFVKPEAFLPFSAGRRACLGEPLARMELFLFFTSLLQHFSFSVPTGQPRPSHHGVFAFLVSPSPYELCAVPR

[10] = target: CYP2C19 (Homo sapiens, UniProt P33261); assay: CYP inhibition screening in microsomes; settings: pH 7.4
Sequence of CYP2C19 (P33261 whole entry): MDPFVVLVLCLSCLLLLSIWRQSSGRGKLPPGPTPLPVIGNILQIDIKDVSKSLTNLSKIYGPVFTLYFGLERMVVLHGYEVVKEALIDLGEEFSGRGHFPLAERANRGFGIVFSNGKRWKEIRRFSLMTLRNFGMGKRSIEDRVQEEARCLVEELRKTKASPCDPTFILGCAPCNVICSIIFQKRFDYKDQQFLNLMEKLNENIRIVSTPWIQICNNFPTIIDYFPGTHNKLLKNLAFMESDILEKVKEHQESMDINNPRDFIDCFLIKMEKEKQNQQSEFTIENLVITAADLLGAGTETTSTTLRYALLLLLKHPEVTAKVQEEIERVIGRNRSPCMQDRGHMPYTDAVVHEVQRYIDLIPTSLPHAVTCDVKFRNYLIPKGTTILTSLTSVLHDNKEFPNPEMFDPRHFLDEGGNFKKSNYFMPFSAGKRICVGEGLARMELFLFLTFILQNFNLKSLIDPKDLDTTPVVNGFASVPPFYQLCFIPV

[11] = target: cathepsin-L (Homo sapiens, UniProt P07711); assay: IC50 assay with cathepsin-L; format: biochemical; settings: mean±s.d.
Sequence of cathepsin-L (P07711 114-333, species assumed): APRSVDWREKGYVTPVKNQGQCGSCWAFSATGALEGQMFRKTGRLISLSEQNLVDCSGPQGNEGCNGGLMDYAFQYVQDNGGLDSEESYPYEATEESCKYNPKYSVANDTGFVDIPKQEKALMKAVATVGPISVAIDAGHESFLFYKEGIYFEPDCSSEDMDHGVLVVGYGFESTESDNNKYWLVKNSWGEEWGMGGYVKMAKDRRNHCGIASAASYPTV
Description: Cathepsin-L – 100 nM enzyme was pre-incubated with inhibitor in assay buffer (100 mM Sodium Acetate pH 5.5, 1 mM EDTA) for 10 min at 37 °C. The reaction was initiated on addition of 25 μM substrate (D-Val-Leu-Lys-AMC (Bachem).
as §6

[12] = target: T4, caspase-3 (Homo sapiens, UniProt P42574); assay: IC50 assay with recombinant caspase-3; format: biochemical; settings: mean±s.d.
T4 construct: purchased Millipore (Billerica, MA)
T4 sequence (P42574 29-175 limits assumed): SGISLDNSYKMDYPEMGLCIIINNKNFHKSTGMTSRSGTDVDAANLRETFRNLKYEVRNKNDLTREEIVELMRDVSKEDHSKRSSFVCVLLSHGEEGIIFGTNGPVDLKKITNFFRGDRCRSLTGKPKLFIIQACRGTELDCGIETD
T4 sequence (P42574 176-277 limits assumed): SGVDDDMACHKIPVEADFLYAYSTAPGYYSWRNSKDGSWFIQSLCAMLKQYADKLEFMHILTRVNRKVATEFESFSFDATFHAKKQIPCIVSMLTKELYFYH
Description: as §5, §6

[13] = target: CYP2C9 (Homo sapiens, UniProt P11712); assay: CYP inhibition screening in microsomes; settings: pH 7.4
Sequence of CYP2C9 (P11712 whole entry): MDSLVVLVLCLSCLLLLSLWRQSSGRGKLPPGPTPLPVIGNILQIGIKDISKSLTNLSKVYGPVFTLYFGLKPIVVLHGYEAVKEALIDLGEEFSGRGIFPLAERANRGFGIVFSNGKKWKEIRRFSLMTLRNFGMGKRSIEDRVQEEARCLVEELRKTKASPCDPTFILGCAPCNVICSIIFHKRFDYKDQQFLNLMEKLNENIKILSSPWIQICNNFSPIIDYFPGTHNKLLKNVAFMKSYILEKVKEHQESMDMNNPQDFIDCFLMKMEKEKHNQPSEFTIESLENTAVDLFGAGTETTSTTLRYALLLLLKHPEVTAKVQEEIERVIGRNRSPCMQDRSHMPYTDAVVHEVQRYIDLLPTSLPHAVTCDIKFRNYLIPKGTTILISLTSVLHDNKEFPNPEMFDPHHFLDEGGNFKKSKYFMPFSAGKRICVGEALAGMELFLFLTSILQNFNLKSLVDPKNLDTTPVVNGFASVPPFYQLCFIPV

[14] = target: T5, cathepsin-S (Homo sapiens, UniProt P25774); assay: IC50 assay with recombinant cathepsin-S; format: biochemical; settings: mean±s.d.
T5 construct: purchased Athens Research and Technology (Athens, GA)
T5 sequence (P25774 115-331, species assumed): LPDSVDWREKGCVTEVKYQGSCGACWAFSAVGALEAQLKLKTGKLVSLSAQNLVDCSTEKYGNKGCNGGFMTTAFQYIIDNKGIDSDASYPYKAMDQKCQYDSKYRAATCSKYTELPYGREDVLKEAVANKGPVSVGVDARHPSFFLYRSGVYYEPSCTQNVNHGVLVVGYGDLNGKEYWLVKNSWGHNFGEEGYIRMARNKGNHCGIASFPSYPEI
Description: Cathepsin-S – 100 nM enzyme was pre-incubated with inhibitor in assay buffer (100 mM NaH2PO4 pH 6.5, 100 mM NaCl) for 10 min at 37 °C. The reaction was initiated on addition of 25 μM substrate (Boc-Val-Leu-Lys-AMC (Bachem).
as §6

| Structure (SMILES) | Papp A→B at 2 h, 10 µM [1] | Papp B→A at 2 h, 10 µM [1] | Mean Remaining Parent (NADPH-free) [4] | Mean Remaining Parent (with NADPH) [4] | inhibition at 10 min, 3 µM [5] | inhibition at 10 min, 10 µM [5] | Mean Remaining Parent (NADPH-free) [6] | Mean Remaining Parent (with NADPH) [6] | IC50 [7] | inhibition at 10 min, 3 µM [8] | inhibition at 10 min, 10 µM [8] | inhibition at 10 min, 3 µM [9] | inhibition at 10 min, 10 µM [9] | inhibition at 10 min, 3 µM [10] | inhibition at 10 min, 10 µM [10] | IC50 [11] | IC50 [12] | inhibition at 10 min, 3 µM [13] | inhibition at 10 min, 10 µM [13] | IC50 [14] | further results |
| --- | --- | --- | --- | --- | --- | --- | --- | --- | --- | --- | --- | --- | --- | --- | --- | --- | --- | --- | --- | --- | --- |
| COc1ccc(N2CCN(C(c3ccc(N(C)C)cc3)c3nnnn3C(C)(C)C)CC2)cc1 (centres unmarked) [compound 31] | 19.3 ×10⁻⁶ cm/s | 17.4 ×10⁻⁶ cm/s | 86% | 16% | 13.5% | 10.3% | 75% | 12% | > 100 µM | -0.9% | 18.1% | 9.9% | 1.4% | 37.7% | 55.7% | 1.3 ± 0.39 µM | > 100 µM | 47.8% | 69.2% | > 100 µM | efflux ratio at 2 h, 10 µM [1]: 0.9; inhibition at 10 min, 3 µM ([2]; pH 7.4, probe testosterone): 2.5%; inhibition at 10 min, 10 µM ([2]; pH 7.4, probe testosterone): 0.7%; IC50 [3]: 0.67 ± 0.4 µM |
| Nc1ccc(N2CCOCC2)c2nonc12 [compound 11, 7-(morpholin-4-yl)-2,1,3-benzoxadiazol-4-amine] | 35 ×10⁻⁶ cm/s | 7 ×10⁻⁶ cm/s | 103% | 20% | 13.1% | 37% | 93% | 76% | 86.7 ± 10.3 µM | 3.6% | 8% | 7.8% | 21.9% | 4.4% | 6.8% | > 200 µM | 31.9 ± 1.94 µM | 4.3% | 5.6% | > 200 µM | inhibition at 10 min, 3 µM ([2]; pH 7.4): 4.1%; inhibition at 10 min, 10 µM ([2]; pH 7.4): 21.6% |
| Cc1cccc(NCc2ccc(O)c3ncccc23)c1C [compound 12] | 1.4 ×10⁻⁶ cm/s | 3.7 ×10⁻⁶ cm/s | 0% | 1% | 28.4% | 44.5% | 1% | 1% | > 200 µM | -2.5% | -2.5% | 2.9% | -2.6% | 13.4% | 29.4% | > 200 µM | > 200 µM | 4.3% | -2.7% | > 200 µM | efflux ratio at 2 h, 10 µM [1]: 2.7; inhibition at 10 min, 3 µM ([2]; pH 7.4, probe testosterone): 14.2%; inhibition at 10 min, 10 µM ([2]; pH 7.4, probe testosterone): 27.6%; IC50 [3]: 0.43 ± 0.21 µM |
| Cn1c(=O)[nH]c(=O)c2c1nc(S)n2CC(O)COc1ccc(Cl)cc1 (centres unmarked) [compound 38] | 1.1 ×10⁻⁶ cm/s | 20.3 ×10⁻⁶ cm/s | 99% | 98% | -7.6% | 10.5% | 107% | 88% | 76.1 ± 8.12 µM | 7.3% | 10.4% | -5.4% | 0.9% | -12% | 9.5% | > 200 µM | 29.7 ± 4.68 µM | 15.6% | 17.1% | > 200 µM | efflux ratio at 2 h, 10 µM [1]: 18.2; inhibition at 10 min, 3 µM ([2]; pH 7.4, probe testosterone): -6%; inhibition at 10 min, 10 µM ([2]; pH 7.4, probe testosterone): 2.4%; IC50 [3]: 0.11 ± 0.05 µM; selectivity for δ-secretase compared to caspase-8 [7]: at least 80 fold |
